Results on 68 compounds are retold here after ChEMBL document CHEMBL1125315, “Synthesis and evaluation of 2-pyridinone derivatives as HIV-1-specific reverse transcriptase inhibitors. 2. Analogues of 3-aminopyridin-2(1H)-one” (J Med Chem, 1992).

A word on the IC50: it is the midpoint of a concentration-inhibition curve.

The subject of the first experiment is MT4. Put plainly: Compound was evaluated for antiviral activity in MT-4 cells. Cell culture inhibitor concentration (CIC95) is defined as concentration which inhibited >95% the spread of HIV-1 IIIb infection in susceptible cell culture. The experiment is classed as functional. To be noted: Homo sapiens, read-out: CIC95.
Turning to `CSc1cc(NCc2nc3c(Cl)ccc(Cl)c3o2)c(O)nc1C`, the IC95 is 100 nM. `CCc1cc(NCc2nc3ccccc3o2)c(O)nc1C`: the IC95 came out at 200 nM. For the compound `CCc1cc(NCc2cc3c(Cl)ccc(Cl)c3o2)c(O)nc1C`, the IC95 is 50 nM.

In another experiment the test system is MT4. The experiment can be described thus: Compound was evaluated for antiviral activity against MT-4 cells. Cell culture inhibitor concentration (CIC95) is defined as those which inhibited by >95% the spread of HIV-1 IIIb infection in susceptible cell culture; value ranges from 0.012-0.025 uM. As to conditions: Homo sapiens, read-out: CIC95. Format: functional.
As to `Cc1cn([C@H]2C[C@H](N=[N+]=[N-])[C@@H](CO)O2)c(=O)[nH]c1=O` [ZIDOVUDINE], the IC95 stood at 12 nM.

The next experiment addresses Human immunodeficiency virus type 1 reverse transcriptase (Human immunodeficiency virus 1, UniProt Q72547). Put plainly: In vitro HIV-1 RT inhibitory activity using rC.dG as template-primer.
Conditions: not given
Compound `CSc1cc(NCc2nc3ccccc3o2)c(O)nc1C` registered a concentration for half-maximal inhibition (IC50) of 190 nM. Compound `CCc1cc(NCc2nc3cccc(F)c3o2)c(=O)[nH]c1C` came in with a half-maximal inhibitory concentration (IC50) of 92 nM. `CCc1cc(NCc2nc3c(F)ccc(F)c3o2)c(=O)[nH]c1C` came in with a concentration for half-maximal inhibition (IC50) of 70 nM. As to `CCc1cc(NCc2cc3cccc(Cl)c3o2)c(O)nc1C`, 335 nM corresponded to half-maximal inhibition (IC50). For `CCc1cc(NCc2nc3c(F)cccc3o2)c(=O)[nH]c1C`, half-maximal inhibition (IC50) was put at 110 nM.

`CCc1cc(NCc2nc3c([N+](=O)[O-])cccc3o2)c(O)nc1C` gave a concentration for half-maximal inhibition (IC50) of 24500 nM.

The compound `CCc1cc(NCc2nc3cc4ccccc4cc3o2)c(=O)[nH]c1C` registered an IC50 of 10000 nM. Turning to `CCOC(=O)c1cc(NCc2nc3ccccc3o2)c(=O)[nH]c1C`, the half-maximal inhibitory concentration (IC50) was determined as 1750 nM. For the compound `CCc1cc(NCc2cc3ccccc3[nH]2)c(=O)[nH]c1C`, half-maximal inhibition (IC50) required 4400 nM.

In the case of `Cc1nc(O)c(NCc2nc3ccccc3o2)cc1[S+](C)[O-]` (configuration not stated), the half-maximal inhibitory concentration (IC50) was 31500 nM. In turn, `CCc1cc(NCc2nc3c(OC)cccc3o2)c(=O)[nH]c1C` returned an IC50 of 180 nM. In the case of `CCc1cc(NC(C)c2cc3ccccc3o2)c(=O)[nH]c1C` (configuration not stated), 970 nM corresponded to half-maximal inhibition (IC50). Compound `CCc1cc(N(C)Cc2cc3c(Cl)ccc(Cl)c3o2)c(=O)[nH]c1C` yielded an IC50 of 1050 nM. `CCc1cc(N(C)Cc2nc3c(C)ccc(C)c3o2)c(=O)[nH]c1C` had a half-inhibitory concentration (IC50) of 103 nM.

Compound `CCc1cc(NCc2nc3ccccc3[nH]2)c(O)nc1C` came in with an IC50 of 7580 nM.

Compound `CCc1cc(NCc2ccco2)c(=O)[nH]c1C` came in with a half-inhibitory concentration (IC50) of 29000 nM. On to `CCc1cc(NCc2nc3c(ccc4ccccc43)o2)c(O)nc1C`, for which it took 2700 nM to reach half-maximal inhibition (IC50).

In the case of `CSc1cc(NCc2nc3c(Cl)ccc(Cl)c3o2)c(O)nc1C`, it took 43 nM to reach half-maximal inhibition (IC50). On the same count and under the same terms, then `CCc1cc(NCc2nc3ccc(C)cc3o2)c(=O)[nH]c1C`, with 1650 nM; and `C=Cc1cc(NCc2nc3c(Cl)ccc(Cl)c3o2)c(=O)[nH]c1C`, with 23 nM. On to `CCc1cc(NCc2nc3cc(F)ccc3o2)c(=O)[nH]c1C`, for which the half-inhibitory concentration (IC50) worked out at 470 nM. As for `CCc1cc(NCc2nc3ccccc3c(=O)[nH]2)c(=O)[nH]c1C`, the midpoint of inhibition, the IC50, lay at 2500 nM. For `COc1cc(NCc2nc3c(Cl)ccc(Cl)c3o2)c(O)nc1C`, the IC50 worked out at 115 nM. In turn, `CCc1cc(NCc2nc3c(C)cccc3o2)c(O)nc1C` registered a half-inhibitory concentration (IC50) of 120 nM.

Turning to `CCc1cc(NCc2nc3ccc(F)cc3o2)c(=O)[nH]c1C`, the IC50 was found to be 1250 nM. `CCc1cc(NC(C)c2ccc3ccccc3c2)c(O)nc1C` (configuration not stated) showed an IC50 of 1130 nM.

On to `CCc1cc(NCc2coc3ccccc3c2=O)c(=O)[nH]c1C`, for which the half-maximal inhibitory concentration (IC50) came to 1100 nM. As to `CCSc1cc(NCc2nc3ccccc3o2)c(=O)[nH]c1C`, the 50% inhibitory concentration (IC50) amounted to 430 nM. As for `CCc1cc(NCc2cc3cnccc3o2)c(=O)[nH]c1C`, it took 32300 nM to reach half-maximal inhibition (IC50). `CCc1cc(NCc2cc3ccccc3o2)c(O)nc1C`: the midpoint of inhibition, the IC50, lay at 330 nM.

`O=c1[nH]c2ccccc2cc1NCc1ccc2ccccc2c1` gave an IC50 greater than 300000 nM. Compound `CCc1cc(NCc2nc3cccc(Cl)c3o2)c(=O)[nH]c1C` returned a 50% inhibitory concentration (IC50) of 65 nM.

`CCc1cc(NCc2nc3ncccc3o2)c(O)nc1C` displayed a 50% inhibitory concentration (IC50) of 1900 nM.

In turn, `CCc1cc(N(C)Cc2nc3c(Cl)ccc(Cl)c3o2)c(=O)[nH]c1C` had an IC50 of 58 nM. For `CCc1cc(NCc2nc3cccc(CC)c3o2)c(O)nc1C`, the midpoint of inhibition, the IC50, lay at 260 nM. On to `CCc1cc(NCc2nc3c(o2)CCCC3)c(=O)[nH]c1C`, for which the IC50 came out at 280 nM. In turn, `CCc1cc(NCc2ccoc2)c(O)nc1C` yielded an IC50 of 145000 nM.

In turn, `CCc1cc(NCc2c[nH]c3ccccc23)c(O)nc1C` gave a half-inhibitory concentration (IC50) of 22500 nM. In turn, `CCc1cc(NCc2cccc3ccccc23)c(=O)[nH]c1C` showed an IC50 of 2100 nM. On the same count and under the same terms, then `CCc1cc(NCc2cc3ccccc3s2)c(O)nc1C`, with 500 nM; and `CCc1cc(NCc2ccc3ccccc3n2)c(=O)[nH]c1C`, with 530 nM; and `CCc1cc(NCc2cccnc2)c(=O)[nH]c1C`, with 300000 nM. On the same count and under the same terms, then `CCc1cc(NCc2cc3c(Cl)ccc(Cl)c3o2)c(O)nc1C`, with 57 nM; and `CCc1cc(NCc2nc3c(Cl)cccc3o2)c(O)nc1C`, with 150 nM.

Compound `CCc1cc(NCc2ccc3ccccc3c2)c(=S)[nH]c1C` yielded a half-inhibitory concentration (IC50) of 300 nM.

For `CCc1cc(NCc2cnc3ccccc3c2)c(=O)[nH]c1C`, the midpoint of inhibition, the IC50, lay at 335 nM. Compound `Cc1[nH]c(=O)c(NCc2nc3c(Cl)ccc(Cl)c3o2)cc1C(C)O` (configuration not stated) displayed a 50% inhibitory concentration (IC50) of 1050 nM. Same read-out and setting: the same measure for `CCc1cc(NCc2nc3c(N)cccc3o2)c(O)nc1C`: 67000 nM; for `CCc1cc(N(CC)Cc2nc3c(Cl)ccc(Cl)c3o2)c(O)nc1C`: 654 nM; for `CCc1cc(NCc2cc3ccncc3o2)c(O)nc1C`: 105000 nM. On the same count and under the same terms, then `Cc1[nH]c(=O)c(NCc2nc3ccccc3o2)cc1S(C)(=O)=O`, with 1150 nM. Compound `CC(=O)c1cc(NCc2nc3c(Cl)ccc(Cl)c3o2)c(O)nc1C` displayed an IC50 of 300 nM.

Take `Cc1cc(C)c(NCc2nc3c(Cl)ccc(Cl)c3o2)c(=O)[nH]1`: the IC50 was 2850 nM. On to `CCc1cc(NCc2ccccn2)c(O)nc1C`, for which the IC50 was 15000 nM. The compound `CCc1cc(NCc2ccc3ccccc3c2)c(=O)[nH]c1C` gave an IC50 of 460 nM. `CCc1cc(NCc2nc3c(Cl)ccc(Cl)c3o2)c(S)nc1C`: the midpoint of inhibition, the IC50, lay at 42 nM.

As for `CCc1cc(NCc2ccccc2)c(=O)[nH]c1C`, the IC50 was 5330 nM. `CCc1cc(NCc2oc3ccccc3c2C)c(=O)[nH]c1C` returned an IC50 of 1950 nM. Still for that read-out and setting: then `CCc1c(C)[nH]c(=O)c(NCc2nc3ccccc3o2)c1C`, with 600 nM; and `CCc1cc(NCc2nc3c(O)cccc3o2)c(=O)[nH]c1C`, with 440 nM.

The compound `CCc1cc(NCc2ccc3ccccc3c2)c(=O)n(C)c1C` came in with a 50% inhibitory concentration (IC50) of 11000 nM. As for `CCc1cc(NCc2nc3c(F)ccc(Cl)c3o2)c(=O)[nH]c1C`, the IC50 is 105 nM. Compound `CCc1cc(NCc2ncc(-c3ccccc3)o2)c(=O)[nH]c1C` came in with an IC50 of 2350 nM. Same read-out and setting: then `CCc1cc(NCc2nc3cc(C)ccc3o2)c(O)nc1C`, with 1250 nM.

In another experiment the test system is H9. Put plainly: Compound was evaluated for antiviral activity against H9 cells. Cell culture inhibitor concentration (CIC95) is defined as those which inhibited by >95% the spread of HIV-1 IIIb infection in susceptible cell culture. The experiment is classed as functional. To be noted: Homo sapiens, read-out: CIC95.
`Cc1cn([C@H]2C[C@H](N=[N+]=[N-])[C@@H](CO)O2)c(=O)[nH]c1=O` [ZIDOVUDINE]: the IC95 is 20000 nM.

The next experiment deals with MT4. The experiment can be described thus: Compound was evaluated for antiviral activity in MT-4 cells. Cell culture inhibitor concentration (CIC95) is defined as concentration which inhibited >95% the spread of HIV-1 IIIb infection in susceptible cell culture; value ranges from 0.025-0.050 uM. The experiment is classed as functional. As to conditions: Homo sapiens, read-out: CIC95.
With `CCc1cc(NCc2nc3c(Cl)ccc(Cl)c3o2)c(O)nc1C` [L-697661], the IC95 came out at 25 nM.

For `CCc1cc(NCc2nc3c(C)ccc(C)c3o2)c(O)nc1C`, the IC95 came out at 25 nM.

Another experiment has as its system H9. Put plainly: Compound was evaluated for antiviral activity in H9 cells. Cell culture inhibitor concentration (CIC95) is defined as uM. The experiment is classed as functional. As to conditions: Homo sapiens, read-out: CIC95.
As to `CCc1cc(NCc2nc3c(C)ccc(C)c3o2)c(O)nc1C`, the IC95 is 100 nM.
